Measurements from ChEMBL document CHEMBL1629541, “Synthesis and structure-activity relationships of aza- and diazabiphenyl analogues of the antitubercular drug (6S)-2-nitro-6-{[4-(trifluoromethoxy)benzyl]oxy}-6,7-dihydro-5H-imidazo[2,1-b][1,3]oxazine (PA-824)” (J Med Chem, 2010).
≈ marks a conversion by molar mass, not a printed value.

Key:
[1] = AUC (0-infinity) in CD1 mouse plasma at 40 mg/kg, po administered as single dose; format: ADME, organism-based; parameters: time infinity, dose 40 mg/kg, route oral
[2] = Cmax in CD1 mouse plasma at 40 mg/kg, po administered as single dose; format: ADME, organism-based; parameters: dose 40 mg/kg, route oral
[3] = Half life in CD1 mouse plasma at 40 mg/kg, po administered as single dose; format: ADME, organism-based; parameters: dose 40 mg/kg, route oral
[4] = AUC (0-infinity) in CD1 mouse lung at 40 mg/kg, po administered as single dose; format: ADME, organism-based; parameters: time infinity, dose 40 mg/kg, route oral
[5] = Cmax in CD1 mouse lung at 40 mg/kg, po administered as single dose; format: ADME, organism-based; parameters: dose 40 mg/kg, route oral
[6] = Half life in CD1 mouse lung at 40 mg/kg, po administered as single dose; format: ADME, organism-based; parameters: dose 40 mg/kg, route oral
[7] = Cmax in Sprague-Dawley rat at 5 mg/kg, iv administered as single dose; format: ADME, organism-based; parameters: dose 5 mg/kg, route intravenous; details: in vivo
[8] = Tmax in Sprague-Dawley rat at 5 mg/kg, iv administered as single dose; format: ADME, organism-based; parameters: dose 5 mg/kg, route intravenous; details: in vivo
[9] = Half life in Sprague-Dawley rat at 5 mg/kg, iv administered as single dose; format: ADME, organism-based; parameters: dose 5 mg/kg, route intravenous; details: in vivo
[10] = AUClast in Sprague-Dawley rat at 5 mg/kg, iv administered as single dose; format: ADME, organism-based; parameters: time 0 - last, dose 5 mg/kg, route intravenous; details: plasma
[11] = Cmax in Sprague-Dawley rat at 20 mg/kg, po administered as single dose; format: ADME, organism-based; parameters: dose 20 mg/kg, route oral; details: in vivo
[12] = Tmax in Sprague-Dawley rat at 20 mg/kg, po administered as single dose; format: ADME, organism-based; parameters: dose 20 mg/kg, route oral; details: in vivo
[13] = AUClast in Sprague-Dawley rat at 20 mg/kg, po administered as single dose; format: ADME, organism-based; parameters: time 0 - last, dose 20 mg/kg, route oral; details: plasma
[14] = Oral bioavailability in Sprague-Dawley rat at 20 mg/kg, po administered as single dose; format: ADME, organism-based; details: in vivo
[15] = tested on: Mycobacterium tuberculosis; assay: microbe, parasite or virus in culture; details: H37Rv
[16] = tested on: Mycobacterium tuberculosis; assay: microbe, parasite or virus in culture; details: H37Rv; remark: listed apart in the source
Description: Antitubercular activity against Mycobacterium tuberculosis H37Rv by LORA method

[17] = Ratio of AUC (0-infinity) in lung to AUC (0-infinity) in plasma of CD1 mouse at 40 mg/kg, po administered as single dose; format: ADME, organism-based; parameters: dose 40 mg/kg, route oral
[18] = Thermodynamic solubility in aqueous buffer at pH 1 at 20 degC by HPLC; format: physicochemical; details: for solubility thermodynamic: aqueous buffer
[19] = Thermodynamic solubility in aqueous buffer at pH 7.4 at 20 degC by HPLC; format: physicochemical
physchem [20] = details: water, pH 7
Description: Solubility of the compound in water at pH 7.0 by HPLC

physchem [21] = details: water, pH 1
Description: Solubility of the compound in water at pH 1.0 by HPLC

in vitro [22] = details: human, liver microsomes
Description: Metabolic stability in human liver microsomes assessed as compound remaining after 1 hr

in vitro [23] = details: CD1, mouse, liver microsomes
Description: Metabolic stability in CD1 mouse liver microsomes assessed as compound remaining after 1 hr

[24] = Cmax in Sprague-Dawley rat at 1 mg/kg, iv administered as single dose; format: ADME, organism-based; parameters: dose 1 mg/kg, route intravenous; details: in vivo
[25] = Tmax in Sprague-Dawley rat at 1 mg/kg, iv administered as single dose; format: ADME, organism-based; parameters: dose 1 mg/kg, route intravenous; details: in vivo
[26] = Half life in Sprague-Dawley rat at 1 mg/kg, iv administered as single dose; format: ADME, organism-based; parameters: dose 1 mg/kg, route intravenous; details: in vivo
[27] = AUClast in Sprague-Dawley rat at 1 mg/kg, iv administered as single dose; format: ADME, organism-based; parameters: time 0 - last, dose 1 mg/kg, route intravenous; details: plasma
[28] = Metabolic stability in human liver microsomes after 1 hr at 37 degC; format: ADME, Microsome; details: read-out: Stability

Row | Compound | AUC(0-inf) [1] | Cmax [2] | half-life [3] | AUC(0-inf) [4] | Cmax [5] | half-life [6] | Cmax [7] | Cmax [11] | Tmax [12] | AUC(0-t) [13] | bioavailability [14] | MIC [15] | MIC [16] | Kp [17] | solubility thermodynamic [18] | solubility thermodynamic [19] | solubility (physchem [20]) | solubility (physchem [21]) | remaining at 1 h (in vitro [22]) | remaining at 1 h (in vitro [23]) | further results
1 | O=[N+]([O-])c1cn2c(n1)OC[C@@H](OCc1ccc(-c3ccc(OC(F)(F)F)cc3)cn1)C2 | 418 µg·h/mL | 26000 ng/mL | 5.4 h | 427 µg·h/mL | 35000 ng/mL | 8.2 h | 8700 ng/mL | 16000 ng/mL | 6 h | 66.7 µg·h/mL | 46% | 0.065 µM (≈ 0.0284 µg/mL) | 3.7 µM (≈ 1.61 µg/mL) |  |  |  |  |  |  |  | Tmax [8]: 0.083 h; half-life [9]: > 6 h; AUC(0-t) [10]: 35.9 µg·h/mL
2 | O=[N+]([O-])c1cn2c(n1)OC[C@@H](OCc1ccc(-c3ccc(OC(F)(F)F)c(F)c3)cn1)C2 | 137 µg·h/mL | 7600 ng/mL | 8.4 h | 155 µg·h/mL | 9100 ng/mL | 7.9 h |  |  |  |  |  | 0.05 µM (≈ 0.0227 µg/mL) | 1.3 µM (≈ 0.591 µg/mL) | 1.1 | 67 µg/mL (≈ 147 µM) | 1.5 µg/mL (≈ 3.3 µM) | 30 µg/mL (≈ 66 µM) | 334 µg/mL (≈ 735 µM) | 97% | 86% | 
3 | O=[N+]([O-])c1cn2c(n1)OC[C@@H](OCc1ccc(-c3ccc(OC(F)(F)F)c(F)c3)nc1)C2 | 175 µg·h/mL | 7000 ng/mL | 14 h | 251 µg·h/mL | 12000 ng/mL | 12 h |  | 7200 ng/mL | 6 h | 129 µg·h/mL | 93% | 0.025 µM (≈ 0.0114 µg/mL) | 0.93 µM (≈ 0.423 µg/mL) | 1.4 | 34 µg/mL (≈ 74.8 µM) | 0.32 µg/mL (≈ 0.704 µM) | 3 µg/mL (≈ 6.6 µM) | 71 µg/mL (≈ 156 µM) | 100% | 90% | Cmax [24]: 530 ng/mL; Tmax [25]: 4.98 min; half-life [26]: 33 h; AUC(0-t) [27]: 6.97 µg·h/mL
4 | O=[N+]([O-])c1cn2c(n1)OC[C@@H](OCc1cnc(-c3ccc(OC(F)(F)F)cc3)cn1)C2 | 152 µg·h/mL | 9600 ng/mL | 7.2 h | > 324 µg·h/mL | 23000 ng/mL | > 8 h | 3900 ng/mL | 7000 ng/mL | 5 h | 29.4 µg·h/mL | 45% | 0.023 µM (≈ 0.0101 µg/mL) | 1 µM (≈ 0.437 µg/mL) |  | 0.44 µg/mL (≈ 1.01 µM) | 0.44 µg/mL (≈ 1.01 µM) |  | 2.8 µg/mL (≈ 6.4 µM) | 98% |  | Tmax [8]: 0.167 h; half-life [9]: 24 h; AUC(0-t) [10]: 16.3 µg·h/mL
5 | O=[N+]([O-])c1cn2c(n1)OC[C@@H](OCc1cnc(-c3ccc(OC(F)(F)F)cc3)nc1)C2 | 43 µg·h/mL | 1200 ng/mL | 23 h | 131 µg·h/mL | 4000 ng/mL | 18 h |  |  |  |  |  | 0.027 µM (≈ 0.0118 µg/mL) | 1.8 µM (≈ 0.787 µg/mL) |  | 1.5 µg/mL (≈ 3.43 µM) | 1.2 µg/mL (≈ 2.74 µM) |  | 3 µg/mL (≈ 6.86 µM) | 96% | 87% | 
6 | O=[N+]([O-])c1cn2c(n1)OC[C@@H](OCc1ccc(-c3ccc(C(F)(F)F)cn3)cc1)C2 | 20 µg·h/mL | 1100 ng/mL | 8.8 h | 67 µg·h/mL | 34000 ng/mL | 10 h |  |  |  |  |  | 0.06 µM (≈ 0.0252 µg/mL) | 1 µM (≈ 0.42 µg/mL) | 3.4 | 0.84 µg/mL (≈ 2 µM) | 0.42 µg/mL (≈ 0.999 µM) | 0.2 µg/mL (≈ 0.476 µM) | 5.1 µg/mL (≈ 12.1 µM) | 93% | 90% | 
7 | O=[N+]([O-])c1cn2c(n1)OC[C@@H](OCc1ccc(-c3ccc(C(F)(F)F)nc3)cc1)C2 | 217 µg·h/mL | 14000 ng/mL |  | 414 µg·h/mL | 373000 ng/mL | 9.1 h |  |  |  |  |  | 0.03 µM (≈ 0.0126 µg/mL) | 2.1 µM (≈ 0.883 µg/mL) | 1.9 | 0.38 µg/mL (≈ 0.904 µM) | 0.17 µg/mL (≈ 0.404 µM) | 1 µg/mL (≈ 2.38 µM) | 11 µg/mL (≈ 26.2 µM) | 86% |  | 
8 | COc1ccc(-c2ccc(CO[C@@H]3COc4nc([N+](=O)[O-])cn4C3)cc2)cn1 |  |  |  |  |  |  |  |  |  |  |  | 0.045 µM (≈ 0.0172 µg/mL) | 0.61 µM (≈ 0.233 µg/mL) |  |  |  | 4.4 µg/mL (≈ 11.5 µM) |  | 40% | 6% | remaining at 1 h [28]: > 50%
9 | O=[N+]([O-])c1cn2c(n1)OC[C@@H](OCc1ccc(-c3ccc(OC(F)(F)F)cc3)nc1)C2 [TBA-354] | 296 µg·h/mL | 12000 ng/mL | 24 h | 81 µg·h/mL | 18000 ng/mL | 2.2 h | 3900 ng/mL | 8100 ng/mL | 5 h | 30.1 µg·h/mL | 62% | 0.05 µM (≈ 0.0218 µg/mL) | 0.54 µM (≈ 0.236 µg/mL) |  |  | < 0.1 µg/mL |  |  | 83% | 87% | Tmax [8]: 0.083 h; half-life [9]: > 6 h; AUC(0-t) [10]: 12.1 µg·h/mL; solubility ([18]; buffer): 45 µg/mL (≈ 103 µM)
